Tested on: 422866-222-R5-J1-PDC complex spheroids viability
Experiment: Anticancer human tumor 422866-222-R5-J1-PDC patient-derived pancreatic adenocarcinoma cell line growth inhibition [RAS]
Conditions: for IC50: curve of first compound; for viability, T/C: stronger effect = lower value
Outline: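 Tumour cells grown as complex spheroids with HUVEC endothelial cells and mesenchymal stem cells, treated with RAS pathway inhibitor combinations. Each agent spans half-log steps from near clinical Cmax, or 10 microM where Cmax is unknown.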

[1] = second compound 0.00316 µM, first compound 0.00316 µM
[2] = second compound 0.00316 µM, first compound 0.01 µM
[3] = second compound 0.00316 µM, first compound 0.0316 µM
[4] = second compound 0.00316 µM, first compound 0.1 µM
[5] = second compound 0.00316 µM, first compound 0.316 µM
[6] = second compound 0.00316 µM, first compound 1 µM
[7] = second compound 0.01 µM, first compound 0.00316 µM
[8] = second compound 0.01 µM, first compound 0.01 µM
[9] = second compound 0.01 µM, first compound 0.0316 µM
[10] = second compound 0.01 µM, first compound 0.1 µM
[11] = second compound 0.01 µM, first compound 0.316 µM
[12] = second compound 0.01 µM, first compound 1 µM
[13] = second compound 0.0316 µM, first compound 0.00316 µM
[14] = second compound 0.0316 µM, first compound 0.01 µM
[15] = second compound 0.0316 µM, first compound 0.0316 µM
[16] = second compound 0.0316 µM, first compound 0.1 µM
[17] = second compound 0.0316 µM, first compound 0.316 µM
[18] = second compound 0.0316 µM, first compound 1 µM
[19] = second compound 0.1 µM, first compound 0.00316 µM
[20] = second compound 0.1 µM, first compound 0.01 µM
[21] = second compound 0.1 µM, first compound 0.0316 µM
[22] = second compound 0.1 µM, first compound 0.1 µM
[23] = second compound 0.1 µM, first compound 0.316 µM
[24] = second compound 0.1 µM, first compound 1 µM
[25] = second compound 0.316 µM, first compound 0.00316 µM
[26] = second compound 0.316 µM, first compound 0.01 µM
[27] = second compound 0.316 µM, first compound 0.0316 µM
[28] = second compound 0.316 µM, first compound 0.1 µM
[29] = second compound 0.316 µM, first compound 0.316 µM
[30] = second compound 0.316 µM, first compound 1 µM
[31] = second compound 1 µM, first compound 0.00316 µM
[32] = second compound 1 µM, first compound 0.01 µM
[33] = second compound 1 µM, first compound 0.0316 µM
[34] = second compound 1 µM, first compound 0.1 µM
[35] = second compound 1 µM, first compound 0.316 µM
[36] = second compound 1 µM, first compound 1 µM
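Further: spheroids exposed to compounds for 7 days.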
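Wherever viability, T/C is given: 100% = DMSO vehicle control viability.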

`C=CC(=O)Nc1cc(Nc2nccc(-c3cn(C)c4ccccc34)n2)c(OC)cc1N(C)CCN(C)C` + C=CC(=O)N1CCN(c2nc(OCC3CCCN3C)nc3c(F)c(-c4nc(N)cc(C)c4C(F)(F)F)c(Cl)cc23)C(C)C1 was tested, and the IC50 (second compound 0.00316 µM) was under 3.16 nM, the IC50 (second compound 0.01 µM) was under 3.16 nM and the IC50 (second compound 0.0316 µM) was under 3.16 nM. For the same compound, the IC50 (second compound 0.1 µM) was under 3.16 nM, the IC50 (second compound 0.316 µM) was under 3.16 nM and the IC50 (second compound 1 µM) was under 3.16 nM. It also gave a viability, T/C [1] of 26.3%, a viability, T/C [2] of 28.2% and a viability, T/C [3] of 29%. The viability, T/C [4] was 28%, the viability, T/C [5] was 18.5% and the viability, T/C [6] was 12.4%. For the same compound, the viability, T/C [7] was 34.1%, the viability, T/C [8] was 21.1% and the viability, T/C [9] was 20.5%. It also gave a viability, T/C [10] of 19.8%, a viability, T/C [11] of 17.3% and a viability, T/C [12] of 12.3%. It also gave a viability, T/C [13] of 33.4%, a viability, T/C [14] of 26.3% and a viability, T/C [15] of 21.5%. The viability, T/C [16] was 16.5%, the viability, T/C [17] was 17% and the viability, T/C [18] was 12.2%. The viability, T/C [19] was 22.8%, the viability, T/C [20] was 21.9% and the viability, T/C [21] was 17.3%. It also gave a viability, T/C [22] of 17.6%, a viability, T/C [23] of 16.6% and a viability, T/C [24] of 11.9%. For the same compound, the viability, T/C [25] was 19.7%, the viability, T/C [26] was 21.4% and the viability, T/C [27] was 20%. It also gave a viability, T/C [28] of 21.8%, a viability, T/C [29] of 18.1% and a viability, T/C [30] of 14.2%. It also gave a viability, T/C [31] of 20.5%, a viability, T/C [32] of 20.8% and a viability, T/C [33] of 22.7%. For the same compound, the viability, T/C [34] was 20.9%, the viability, T/C [35] was 18.6% and the viability, T/C [36] was 12.4%.

Work on `CCN1CCN(Cc2ccc(Nc3ncc(F)c(-c4cc(F)c5nc(C)n(C(C)C)c5c4)n3)nc2)CC1` + C=CC(=O)N1CCN(c2nc(OCC3CCCN3C)nc3c(F)c(-c4nc(N)cc(C)c4C(F)(F)F)c(Cl)cc23)C(C)C1 yielded an IC50 (second compound 0.00316 µM) of under 3.16 nM, an IC50 (second compound 0.01 µM) of under 3.16 nM and an IC50 (second compound 0.0316 µM) of under 3.16 nM. The IC50 (second compound 0.1 µM) was under 3.16 nM, the IC50 (second compound 0.316 µM) was under 3.16 nM and the IC50 (second compound 1 µM) was under 3.16 nM. It also gave a viability, T/C [1] of 25.2%, a viability, T/C [2] of 32.4% and a viability, T/C [3] of 26.4%. It also gave a viability, T/C [4] of 21%, a viability, T/C [5] of 31.8% and a viability, T/C [6] of 36.3%. The viability, T/C [7] was 25.3%, the viability, T/C [8] was 24.6% and the viability, T/C [9] was 24.8%. The viability, T/C [10] was 23.3%, the viability, T/C [11] was 25.8% and the viability, T/C [12] was 30.3%. It also gave a viability, T/C [13] of 22.7%, a viability, T/C [14] of 22.1% and a viability, T/C [15] of 22.5%. The viability, T/C [16] was 18.5%, the viability, T/C [17] was 27.8% and the viability, T/C [18] was 30.5%. It also gave a viability, T/C [19] of 24.4%, a viability, T/C [20] of 22.2% and a viability, T/C [21] of 21%. The viability, T/C [22] was 20.7%, the viability, T/C [23] was 24.5% and the viability, T/C [24] was 31%. It also gave a viability, T/C [25] of 18.9%, a viability, T/C [26] of 20.2% and a viability, T/C [27] of 20.3%. It also gave a viability, T/C [28] of 21.7%, a viability, T/C [29] of 27.3% and a viability, T/C [30] of 30.4%. The viability, T/C [31] was 22.7%, the viability, T/C [32] was 20.9% and the viability, T/C [33] was 23.2%. The viability, T/C [34] was 21.2%, the viability, T/C [35] was 24.9% and the viability, T/C [36] was 37.9%.
